Here are results for 25 compounds from patent publication US9593108B2, “Compounds and methods for antiviral treatment” (PTC Therapeutics, Inc., priority 2009, dated 2017).

Each structure is given as a SMILES string.

Data set [1] concerns HCV replicon RNA (GenBank Accession No. AJ242654). The data set is described as follows: HCV Replicon Assay (replicon RNA reduction and/or Fluc reporter signal). As to conditions: Hepatitis C virus, 72 h, replicon-containing cells cultured with test compound for up to 3 days. Format: cell-based, Hepatitis C virus. Put shortly:
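Bicistronic replicon-containing cells cultured with compound for up to 3 days, with interferon as positive control. Inhibition quantified by replicon RNA reduction and/or Fluc reporter signal; IC50 values generally derived from replicon RNA reduction.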
(In general: A replicon is a self-replicating genome or part of one, used to study replication in cells.)

With `CCc1cnc2c(c1)c(C#N)c(-c1ccc(S(=O)(=O)N[C@@H](C)C(F)(F)F)cn1)n2-c1ccccc1` [Cpd 413, 6-(3-cyano-5-ethyl-1-phenyl-1H-pyrrolo[2,3-b]pyridin-2-yl)-N-[(2S)-1,1,1-trifluoropropan-2-yl]pyridine-3-sulfonamide], the melting point fell in the range of 135 to 140 °C. The IC50 in data set [1] is less than 500 nM.

As to `Cc1cnc2c(C#N)c(-c3ccc(S(=O)(=O)NC(CF)CF)cn3)n(C3CCCC3)c2c1` [Cpd 176, 6-(3-cyano-1-cyclopentyl-6-methyl-1H-pyrrolo[3,2-b]pyridin-2-yl)-N-(1,3-difluoropropan-2-yl)pyridine-3-sulfonamide], the melting point was 248 to 249 °C. In addition, the IC50 in data set [1] is less than 500 nM.

`C[C@H](NS(=O)(=O)c1ccc(-c2c(C(N)=O)c3cc(F)cnc3n2C2CCC2)nc1)C(F)(F)F` [Cpd 356, 1-cyclobutyl-5-fluoro-2-(5-{[(2S)-1,1,1-trifluoropropan-2-yl]sulfamoyl}pyridin-2-yl)-1H-pyrrolo[2,3-b]pyridine-3-carboxamide] returned a melting point of 223 to 225 °C. For the same compound, in data set [1], the IC50 is less than 500 nM.

Compound `C[C@H](NS(=O)(=O)c1ccc(-c2c(C#N)c3cnc(Cl)cc3n2C2CCC2)cc1)C(F)(F)F` [Cpd 102, 4-(6-chloro-3-cyano-1-cyclobutyl-1H-pyrrolo[3,2-c]pyridin-2-yl)-N-[(2S)-1,1,1-trifluoropropan-2-yl]benzenesulfonamide] gave a melting point of 202 to 203 °C. This compound also registered an IC50 in data set [1] of less than 500 nM.

The compound `N#Cc1c(-c2ccc(S(=O)(=O)NC(CF)CF)cn2)n(C2CCC2)c2cc(Cl)ncc12` [Cpd 97, 6-(6-chloro-3-cyano-1-cyclobutyl-1H-pyrrolo[3,2-c]pyridin-2-yl)-N-(1,3-difluoropropan-2-yl)pyridine-3-sulfonamide] displayed a melting point of 215 to 216 °C. In data set [1], this compound came in with an IC50 of less than 500 nM.

`C[C@@H](NS(=O)(=O)c1ccc(-c2c(C#N)c3cc(C(F)(F)F)cnc3n2C2CCCC2)nc1)C(F)(F)F` [Cpd 230, 6-[3-cyano-1-cyclopentyl-5-(trifluoromethyl)-1H-pyrrolo[2,3-b]pyridin-2-yl]-N-[(2R)-1,1,1-trifluoropropan-2-yl]pyridine-3-sulfonamide] came in with a melting point of 208 to 210 °C. Further, the IC50 in data set [1] is less than 500 nM.

`C[C@@H](NS(=O)(=O)c1ccc(-c2c(C#N)c3cc(OC(F)F)cnc3n2C2CCC2)cc1)C(F)(F)F` [Cpd 199, 4-[3-cyano-1-cyclobutyl-5-(difluoromethoxy)-1H-pyrrolo[2,3-b]pyridin-2-yl]-N-[(2R)-1,1,1-trifluoropropan-2-yl]benzenesulfonamide] showed a melting point of 199 to 200 °C. The compound also yielded a concentration for half-maximal inhibition (IC50) in data set [1] of less than 500 nM.

`Cc1cnc2c(c1)c(C#N)c(-c1ccc(S(=O)(=O)N[C@@H](C)C(F)(F)F)cn1)n2-c1cccnc1` [Cpd 347, 6-[3-cyano-5-methyl-1-(pyridin-3-yl)-1H-pyrrolo[2,3-b]pyridin-2-yl]-N-[(2S)-1,1,1-trifluoropropan-2-yl]pyridine-3-sulfonamide] gave a melting point of 205 to 207 °C. Further, in data set [1], the IC50 was less than 500 nM.

As for `Cc1cnc2c(c1)c(C#N)c(-c1ccc(S(=O)(=O)N[C@@H](C)C(F)(F)F)cc1)n2CC1CCC1` [Cpd 489, 4-[3-cyano-1-(cyclobutylmethyl)-5-methyl-1H-pyrrolo[2,3-b]pyridin-2-yl]-N-[(2S)-1,1,1-trifluoropropan-2-yl]benzenesulfonamide], the melting point lay in the range of 154 to 158 °C. For the same compound, in data set [1], the IC50 was less than 500 nM.

Compound `COc1cnc2c(c1)c(C(N)=O)c(-c1ccc(S(=O)(=O)N[C@@H](C)C(F)(F)F)cn1)n2C1CCC1` [Cpd 226, 1-cyclobutyl-5-methoxy-2-(5-{[(2S)-1,1,1-trifluoropropan-2-yl]sulfamoyl}pyridin-2-yl)-1H-pyrrolo[2,3-b]pyridine-3-carboxamide] displayed a melting point of 233 to 235 °C. Besides, the IC50 in data set [1] is less than 500 nM.

In the case of `CCc1cnc2c(c1)c(C#N)c(-c1ccc(S(=O)(=O)NC3(C(F)(F)F)CC3)cn1)n2C1CCC1` [Cpd 184, 6-(3-cyano-1-cyclobutyl-5-ethyl-1H-pyrrolo[2,3-b]pyridin-2-yl)-N-[1-(trifluoromethyl)cyclopropyl]pyridine-3-sulfonamide], the melting point is 216 to 221 °C. The same compound yielded an IC50 in data set [1] of less than 500 nM.

Compound `Cc1cnc2c(c1)c(C#N)c(-c1ccc(S(=O)(=O)N[C@@H](C)C(F)(F)F)cn1)n2-c1cc(F)ccc1F` [Cpd 504, 6-[3-cyano-1-(2,5-difluorophenyl)-5-methyl-1H-pyrrolo[2,3-b]pyridin-2-yl]-N-[(2S)-1,1,1-trifluoropropan-2-yl]pyridine-3-sulfonamide] yielded a melting point of 232 to 234 °C. The compound also had a half-inhibitory concentration (IC50) in data set [1] of less than 500 nM.

The compound `C[C@H](NS(=O)(=O)c1ccc(-c2c(C#N)c3cc(Cl)cnc3n2-c2ccccn2)nc1)C(F)(F)F` [Cpd 306, 6-[5-chloro-3-cyano-1-(pyridin-2-yl)-1H-pyrrolo[2,3-b]pyridin-2-yl]-N-[(2S)-1,1,1-trifluoropropan-2-yl]pyridine-3-sulfonamide] yielded a melting point of 179 to 181 °C. Moreover, the IC50 in data set [1] was less than 500 nM.

Turning to `CC(C)NS(=O)(=O)c1cnc(-c2c(C#N)c3cc(C4CC4)cnc3n2C2CCC2)nc1` [Cpd 136, 2-(3-cyano-1-cyclobutyl-5-cyclopropyl-1H-pyrrolo[2,3-b]pyridin-2-yl)-N-(propan-2-yl)pyrimidine-5-sulfonamide], the melting point is 187 to 195 °C. The IC50 in data set [1] is less than 500 nM.

Compound `Cc1cnc2c(C#N)c(-c3ccc(S(=O)(=O)N[C@@H](C)C(F)(F)F)cn3)n(-c3cncnc3)c2c1` [Cpd 464, 6-[3-cyano-6-methyl-1-(pyrimidin-5-yl)-1H-pyrrolo[3,2-b]pyridin-2-yl]-N-[(2S)-1,1,1-trifluoropropan-2-yl]pyridine-3-sulfonamide] gave a melting point of 229 to 230 °C. In data set [1], the IC50 lay in the range of 2000 to 5000 nM.

Turning to `CCc1cnc2c(c1)c(C#N)c(-c1ncc(S(=O)(=O)NC(C)C)cn1)n2C1CCC1` [Cpd 196, 2-(3-cyano-1-cyclobutyl-5-ethyl-1H-pyrrolo[2,3-b]pyridin-2-yl)-N-(propan-2-yl)pyrimidine-5-sulfonamide], the melting point was in the range of 170 to 178 °C. This compound also showed an IC50 in data set [1] of less than 500 nM.

The compound `N#Cc1c(-c2ccc(S(=O)(=O)NC3CCC3)cn2)n(C2CCC2)c2ncc(Cl)cc12` [Cpd 283, 6-(5-chloro-3-cyano-1-cyclobutyl-1H-pyrrolo[2,3-b]pyridin-2-yl)-N-cyclobutylpyridine-3-sulfonamide] registered a melting point of 178 to 180 °C. Moreover, in data set [1], the IC50 was less than 500 nM.

In turn, `Cc1cnc2c(c1)c(C#N)c(-c1ccc(S(=O)(=O)N[C@@H](C)C(F)(F)F)cn1)n2-c1ccc(F)c(F)c1` [Cpd 505, 6-[3-cyano-1-(3,4-difluorophenyl)-5-methyl-1H-pyrrolo[2,3-b]pyridin-2-yl]-N-[(2S)-1,1,1-trifluoropropan-2-yl]pyridine-3-sulfonamide] came in with a melting point of 250 to 252 °C. The IC50 in data set [1] is less than 500 nM.

Regarding `C[C@@H](NS(=O)(=O)c1ccc(-c2c(C(N)=O)c3cc(C(F)(F)F)cnc3n2C2CCCCC2)cc1)C(F)(F)F` [Cpd 444, 1-cyclohexyl-5-(trifluoromethyl)-2-(4-{[(2R)-1,1,1-trifluoropropan-2-yl]sulfamoyl}phenyl)-1H-pyrrolo[2,3-b]pyridine-3-carboxamide], the melting point fell in the range of 285 to 287 °C. In addition, the IC50 in data set [1] is less than 500 nM.

Turning to `C[C@H](NS(=O)(=O)c1ccc(-c2c(C#N)c3cc(C(F)(F)F)cnc3n2C2CCCCC2)nc1)C(F)(F)F` [Cpd 415, 6-[3-cyano-1-cyclohexyl-5-(trifluoromethyl)-1H-pyrrolo[2,3-b]pyridin-2-yl]-N-[(2S)-1,1,1-trifluoropropan-2-yl]pyridine-3-sulfonamide], the melting point fell in the range of 204 to 206 °C. The IC50 in data set [1] is less than 500 nM.

With `N#Cc1c(-c2ccc(S(=O)(=O)NC3(C(F)(F)F)CC3)cn2)n(C2CCCCC2)c2ncc(C(F)(F)F)cc12` [Cpd 419, 6-[3-cyano-1-cyclohexyl-5-(trifluoromethyl)-1H-pyrrolo[2,3-b]pyridin-2-yl]-N-[1-(trifluoromethyl)cyclopropyl]pyridine-3-sulfonamide], the melting point fell in the range of 192 to 193 °C. The compound also yielded an IC50 in data set [1] of less than 500 nM.

For `CC(C)(C)NS(=O)(=O)c1ccc(-c2c(C(N)=O)c3cc(C4CC4)cnc3n2C2CCC2)nc1` [Cpd 376, 2-[5-(tert-butylsulfamoyl)pyridin-2-yl]-1-cyclobutyl-5-cyclopropyl-1H-pyrrolo[2,3-b]pyridine-3-carboxamide], the melting point lay within 245 to 252 °C. Moreover, the IC50 in data set [1] is less than 500 nM.

As for `C[C@H](NS(=O)(=O)c1ccc(-c2c(C#N)c3cc(F)cnc3n2CC2CC2)nc1)C(F)(F)F` [Cpd 64, 6-[3-cyano-1-(cyclopropylmethyl)-5-fluoro-1H-pyrrolo[2,3-b]pyridin-2-yl]-N-[(2S)-1,1,1-trifluoropropan-2-yl]pyridine-3-sulfonamide], the melting point lay within 186 to 188 °C. For the same compound, the IC50 in data set [1] is less than 500 nM.

`CN(C)c1cnc2c(c1)c(C#N)c(-c1ccc(NS(=O)(=O)C3(C)CC3)cc1)n2C1CCC1` [Cpd 499, N-{4-[3-cyano-1-cyclobutyl-5-(dimethylamino)-1H-pyrrolo[2,3-b]pyridin-2-yl]phenyl}-1-methylcyclopropanesulfonamide] returned a melting point of 209 to 213 °C. In addition, the IC50 in data set [1] was less than 500 nM.

`Cc1cnc2c(c1)c(C#N)c(-c1ccc(S(=O)(=O)NC(C)(C)C)cn1)n2C1CCC1` [Cpd 293, N-tert-butyl-6-(3-cyano-1-cyclobutyl-5-methyl-1H-pyrrolo[2,3-b]pyridin-2-yl)pyridine-3-sulfonamide] showed a melting point of 173 to 175 °C. This compound came in with an IC50 in data set [1] of less than 500 nM.

As usually defined, the melting point is the temperature of the solid-liquid transition. The term IC50 denotes the point on the concentration scale where inhibition reaches its midpoint. A low value points to higher potency.
